Patent US7713994B2 (Wyeth LLC, priority 2005, dated 2010)
Like-named read-outs stand apart in the source and are kept apart here.

Experiments:
[1] = target: T1, cyclin E/CDK2 enzyme (Homo sapiens, UniProt P24941); experiment: CDK2 ELISA kinase assay (phospho-Rb ser 795 detection); type: biochemical
T1 construct: made in house; host or cells: Sf9 insect cells, recombinant baculovirus
Procedure, shortened: (§1)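 Partially purified Sf9-expressed cyclin D1/CDK4, cyclin E/CDK2 or cyclin B/CDK1 phosphorylated plate-bound GST-Rb C-terminal fragment with 200 μM ATP at 30° C for 1 h.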

[2] = target: T2, cyclin D1/cdk 4 enzyme (Homo sapiens, UniProt P11802); experiment: CDK4 ELISA kinase assay (phospho-Rb ser 795 detection); type: biochemical
T2 construct: made in house; host or cells: Sf9 insect cells, recombinant baculovirus
Procedure, shortened: as §1

[3] = tested on: LoVo; experiment: Cytotoxicity assay (SRB), LoVo; type: cell-based; settings: Homo sapiens, LoVo, 72 h, read-out: In Vitro Cellular Activity IC50 LOVO
Procedure, shortened: (§2)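 Overnight-seeded monolayers (4000–12000 cells/well by line) receive compound in 5% FBS medium at 37 °C, 7% CO2. After 3 d, or 6 d for BT474, cellular protein is fixed with cold TCA, stained with SRB and read at 540 nm against untreated wells.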

[4] = tested on: BT474; experiment: Cytotoxicity assay (SRB), BT474; type: cell-based; settings: Homo sapiens, BT-474, 144 h, read-out: In Vitro Cellular Activity IC50 BT474
Procedure, shortened: as §2

[5] = tested on: MCF-7; experiment: Cytotoxicity assay (SRB), MCF-7; type: cell-based; settings: Homo sapiens, MCF7, 72 h, read-out: In Vitro Cellular Activity IC50 MCF-7
Procedure, shortened: as §2

[6] = target: T3, cyclin B/CDK1 enzyme (Homo sapiens, UniProt P06493); experiment: CDK1 ELISA kinase assay (phospho-Rb ser 795 detection); type: biochemical
T3 construct: purchased New England BioLabs; host or cells: Sf9 insect cells, recombinant baculovirus
Procedure, shortened: as §1

[7] = tested on: HCT-116; experiment: Cytotoxicity assay (SRB), HCT-116; type: cell-based; settings: Homo sapiens, HCT-116, 72 h, read-out: In Vitro Cellular Activity IC50 HCT116
Procedure, shortened: as §2

[8] = In Vitro Enzyme Assay, cyclin E/CDK2, read-out: CDK2 IC50
[9] = In Vitro Enzyme Assay, cyclin D1/cdk 4, read-out: CDK4 IC50
[10] = In Vitro Enzyme Assay, cyclin B/CDK1, read-out: CDK1 IC50
[11] = In Vitro Enzyme Assays, read-out: CDK2 IC50
[12] = In Vitro Enzyme Assays, 200 μM ATP, read-out: CDK4 IC50
[13] = In Vitro Enzyme Assays, read-out: CDK1 IC50

T2 sequence (P11802 whole entry, species assumed): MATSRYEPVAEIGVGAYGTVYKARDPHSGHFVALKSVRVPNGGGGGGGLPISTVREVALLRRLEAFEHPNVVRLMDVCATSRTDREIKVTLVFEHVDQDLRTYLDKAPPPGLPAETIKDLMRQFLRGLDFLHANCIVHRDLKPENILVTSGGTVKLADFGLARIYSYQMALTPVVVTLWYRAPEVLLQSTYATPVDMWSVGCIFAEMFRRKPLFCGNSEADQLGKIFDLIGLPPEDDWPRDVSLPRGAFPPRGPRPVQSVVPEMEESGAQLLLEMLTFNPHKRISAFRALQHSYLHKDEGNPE
T2 sequence (P24385 whole entry partner, species assumed): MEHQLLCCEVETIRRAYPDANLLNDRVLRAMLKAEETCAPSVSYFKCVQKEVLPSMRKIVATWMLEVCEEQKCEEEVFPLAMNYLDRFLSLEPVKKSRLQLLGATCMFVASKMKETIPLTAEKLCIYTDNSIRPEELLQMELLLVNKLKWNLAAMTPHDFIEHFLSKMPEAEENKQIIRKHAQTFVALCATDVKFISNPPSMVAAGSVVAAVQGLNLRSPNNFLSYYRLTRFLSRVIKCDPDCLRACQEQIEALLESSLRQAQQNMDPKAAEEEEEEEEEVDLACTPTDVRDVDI
T3 sequence (P06493 whole entry): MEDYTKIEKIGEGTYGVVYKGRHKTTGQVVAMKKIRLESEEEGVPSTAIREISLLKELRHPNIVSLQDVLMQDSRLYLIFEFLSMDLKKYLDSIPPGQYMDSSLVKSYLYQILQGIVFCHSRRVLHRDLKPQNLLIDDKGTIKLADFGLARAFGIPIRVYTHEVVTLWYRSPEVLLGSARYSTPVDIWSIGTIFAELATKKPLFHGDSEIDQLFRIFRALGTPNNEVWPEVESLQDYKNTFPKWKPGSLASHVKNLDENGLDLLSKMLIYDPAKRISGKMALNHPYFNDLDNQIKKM
T3 sequence (P14635 whole entry partner): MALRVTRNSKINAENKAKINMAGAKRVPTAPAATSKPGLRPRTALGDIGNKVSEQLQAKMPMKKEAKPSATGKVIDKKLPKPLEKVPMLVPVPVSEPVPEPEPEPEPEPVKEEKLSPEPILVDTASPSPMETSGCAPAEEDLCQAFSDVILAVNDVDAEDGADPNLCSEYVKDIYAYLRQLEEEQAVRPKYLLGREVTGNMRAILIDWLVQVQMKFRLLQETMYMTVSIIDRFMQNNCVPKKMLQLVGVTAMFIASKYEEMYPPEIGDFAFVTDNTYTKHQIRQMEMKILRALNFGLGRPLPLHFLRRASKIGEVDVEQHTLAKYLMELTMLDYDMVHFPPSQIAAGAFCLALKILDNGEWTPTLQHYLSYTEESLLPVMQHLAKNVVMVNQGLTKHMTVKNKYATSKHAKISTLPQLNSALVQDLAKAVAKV

Row | IC50 [1, 8] [µM] | IC50 [2, 9] [µM] | melting point [°C] | IC50 [6, 10] [µM] | IC50 [1, 11] [µM] | IC50 [2, 12] [µM] | IC50 [6, 13] [µM] | SMILES | IC50 ([3]; LoVo cells, 3 days, SRB) [µM] | IC50 ([4]; BT474 cells, 6 days, SRB) [µM] | IC50 ([5]; MCF-7 cells, 3 days, SRB) [µM] | IC50 ([7]; HCT116 cells, 3 days, SRB) [µM] | IC50 [3] [µM] | IC50 [4] [µM] | IC50 [5] [µM] | IC50 [7] [µM] | IC50 ([3]; LoVo cells, SRB, three days) [µM] | IC50 ([4]; BT474 cells, SRB, 6 days) [µM] | IC50 ([5]; MCF-7 cells, SRB, three days) [µM] | IC50 ([7]; HCT116 cells, SRB, three days) [µM]
1 | 16 | 13.7 | 238 to 239 | 3 |  |  |  | CN1CCN(c2cnc(N/C=C3\C(=O)NC(=O)c4ccc(I)cc43)cn2)CC1 [Example 507, (4Z)-6-Iodo-4-({[5-(4-methylpiperazin-1-yl)pyrazin-2-yl]amino}methylene)isoquinoline-1,3(2H,4H)-dione] | 18 | 9.5 | 11 | 3.1 |  |  |  |  |  |  |  | 
2 |  |  | 215 to 216 |  | 4.2 | 0.31 | > 50 | CN1CCC(c2ccc(N/C=C3\C(=O)NC(=O)c4ccc(I)cc43)cc2)CC1 [Example 239, (4Z)-6-Iodo-4-({[4-(1-methylpiperidin-4-yl)phenyl]amino}methylene)isoquinoline-1,3(2H,4H)-dione] |  |  |  |  |  |  |  |  | 7.7 | 7.9 | 4 | 2.5
3 |  |  | 178 to 179 |  | > 50 | 0.13 | > 50 | CC(=O)N1CCC(c2ccc(N/C=C3\C(=O)NC(=O)c4ccc(-c5ccoc5)cc43)cc2)CC1 [Example 351, (4Z)-4-({[4-(1-Acetylpiperidin-4-yl)phenyl]amino}methylene)-6-(3-furyl)isoquinoline-1,3(2H,4H)-dione] |  |  |  |  |  |  |  |  | 2.7 | 1.1 | 2.1 | 3
4 |  |  | 159 to 160 |  | 7.7 | 0.83 | 43.5 | CN(C)Cc1ccc(N/C=C2\C(=O)NC(=O)c3ccc(Br)cc32)cc1 [Example 73] |  |  |  |  |  |  |  |  | 13 | 18 | 9.3 | 10
5 |  |  | 273 to 274 |  | 1.3 | 0.48 | 16.2 | NS(=O)(=O)c1ccc(CN/C=C2\C(=O)NC(=O)c3ccc(Br)cc32)cc1 [Example 56, 4-({[(Z)-(6-Bromo-1,3-dioxo-2,3-dihydroisoquinolin-4(1H)-ylidene)methyl]amino}methyl)benzenesulfonamide] |  |  |  |  |  |  |  |  | 30 | 23 | 27 | 28
6 | > 50 | 4.2 | 216 to 217 | > 50 |  |  |  | CN1CCN(c2ccc(N/C=C3\C(=O)NC(=O)c4ccc(-c5cccn5C)cc43)cn2)CC1 [Example 474, (4Z)-4-({[6-(4-Methylpiperazin-1-yl)pyridin-3-yl]amino}methylene)-6-(1-methyl-1H-pyrrol-2-yl)isoquinoline-1,3(2H,4H)-dione] | 3.8 | 7.4 | 4 | 3.5 |  |  |  |  |  |  |  | 
7 |  |  | 217 to 218 |  | > 50 | 0.06 | > 50 | CN1CCC(c2ccc(N/C=C3\C(=O)NC(=O)c4ccc(-c5ccsc5)cc43)cc2)CC1 [Example 327, (4Z)-4-({[4-(1-Methylpiperidin-4-yl)phenyl]amino}methylene)-6-thien-3-ylisoquinoline-1,3(2H,4H)-dione] |  |  |  |  |  |  |  |  | 2.9 | 2.5 | 2.2 | 1.5
8 | 31.1 | 0.2 | 120 to 121 | > 50 |  |  |  | COC[C@@H]1CCCN1c1ccc(CN/C=C2\C(=O)NC(=O)c3ccc(I)cc32)cc1O [Example 523, (4Z)-4-[({3-Hydroxy-4-[(2S)-2-(methoxymethyl)pyrrolidin-1-yl]benzyl}amino)methylene]-6-iodoisoquinoline-1,3(2H,4H)-dione] | 6.2 | 5.7 | 7.3 | 6.4 |  |  |  |  |  |  |  | 
9 |  |  | 130 to 131 |  | > 50 | 0.2 | > 50 | COC[C@H]1CCCN1Cc1ccc(N/C=C2\C(=O)NC(=O)c3ccc(-c4ccoc4)cc32)cc1 [Example 330, (4Z)-6-(3-Furyl)-4-{[(4-{[(2R)-2-(methoxymethyl)pyrrolidin-1-yl]methyl}phenyl)amino]methylene}isoquinoline-1,3(2H,4H)-dione] |  |  |  |  |  |  |  |  | 2.3 | 1 | 0.69 | 2.1
10 |  |  | 211 to 212 |  | > 50 | 1.5 | > 50 | CN1CCN(c2ccc(N/C=C3\C(=O)NC(=O)c4ccc(I)cc43)cc2F)CC1 [Example 295, (4Z)-4-({[3-Fluoro-4-(4-methylpiperazin-1-yl)phenyl]amino}methylene)-6-iodoisoquinoline-1,3(2H,4H)-dione] |  |  |  |  |  |  |  |  | 3.7 | 3.1 | 1.8 | 3.1
11 |  |  | 188 to 189 |  | > 50 | 0.14 | > 50 | COC1CCN(Cc2ccc(N/C=C3\C(=O)NC(=O)c4ccc(-c5ccc(F)cc5)cc43)cc2)CC1 [Example 395, (4Z)-6-(4-Fluorophenyl)-4-[({4-[(4-methoxypiperidin-1-yl)methyl]phenyl}amino)methylene]isoquinoline-1,3(2H,4H)-dione] | 2.8 | 1.49 | 1.4 | 2.3 |  |  |  |  |  |  |  | 
12 |  |  | 185 to 186 |  | 0.26 | 0.02 | 1.5 | CN(C)C/C=C/C(=O)Nc1ccc(CN/C=C2\C(=O)NC(=O)c3ccc(I)cc32)cc1O [Example 359, (2E)-4-(Dimethylamino)-N-[2-hydroxy-4-({[(Z)-(6-iodo-1,3-dioxo-2,3-dihydroisoquinolin-4(1H)-ylidene)methyl]amino}methyl)phenyl]but-2-enamide] |  |  |  |  |  |  |  |  | 0.34 | 0.12 | 0.4 | 0.23
13 | 0.56 | 0.02 | 180 to 181 | 2.6 |  |  |  | CN1CCN(c2ccc(CN/C=C3\C(=O)NC(=O)c4ccc(I)cc43)cc2O)CC1 [Example 521, (4Z)-4-({[3-Hydroxy-4-(4-methylpiperazin-1-yl)benzyl]amino}methylene)-6-iodoisoquinoline-1,3(2H,4H)-dione] | 5.44 | 7.55 | 2.6 | 2.57 |  |  |  |  |  |  |  | 
14 |  |  | 208 to 209 |  | > 50 | 0.29 | > 50 | O=C1NC(=O)c2ccc(-c3ccsc3)cc2/C1=C/Nc1ccc(N2CCN3CCC[C@H]3C2)c(F)c1 [Example 382, (4Z)-4-[({3-Fluoro-4-[(8aS)-hexahydropyrrolo[1,2-a]pyrazin-2(1H)-yl]phenyl}amino)-methylene]-6-thien-3-ylisoquinoline-1,3(2H,4H)-dione] |  |  |  |  |  |  |  |  | 3.7 | 2.7 | 2.7 | 1.2

Row | SMILES | IC50 [1, 8] [µM] | IC50 [2, 9] [µM] | melting point [°C] | IC50 [6, 10] [µM] | IC50 [1, 11] [µM] | IC50 [2, 12] [µM] | IC50 [6, 13] [µM] | IC50 ([3]; LoVo cells, 3 days, SRB) [µM] | IC50 ([4]; BT474 cells, 6 days, SRB) [µM] | IC50 ([5]; MCF-7 cells, 3 days, SRB) [µM] | IC50 ([7]; HCT116 cells, 3 days, SRB) [µM] | IC50 [3] [µM] | IC50 [4] [µM] | IC50 [5] [µM] | IC50 [7] [µM] | IC50 ([3]; LoVo cells, SRB, three days) [µM] | IC50 ([4]; BT474 cells, SRB, 6 days) [µM] | IC50 ([5]; MCF-7 cells, SRB, three days) [µM] | IC50 ([7]; HCT116 cells, SRB, three days) [µM]
15 | CN1CCN(c2ccc(N/C=C3\C(=O)NC(=O)c4ccc(-c5ccc(-c6cccs6)s5)cc43)cc2)CC1 [Example 182, (4Z)-6-(2,2′-Bithien-5-yl)-4-({[4-(4-methylpiperazin-1-yl)phenyl]amino}methylene)-isoquinoline-1,3(2H,4H)-dione] |  |  | 204 to 205 |  | > 50 | 2.3 | 2.3 |  |  |  |  | > 50 | 17 | > 50 | > 50 |  |  |  | 
16 | O=C1NC(=O)c2ccc(-c3ccsc3)cc2/C1=C/Nc1ccc(N2CCC(N3CCCC3)CC2)nc1 [Example 408] |  |  | 203 to 204 |  | > 50 | 0.12 | > 50 |  |  |  |  | 2.6 | 2.4 | 5.1 | 2.5 |  |  |  | 
